Values belong to the compound of their own block, whether it stands above or below them.
Assays:
A375 melanoma cells = test: Cell viability (MTT), A375; type: cell-based, human; conditions: A375, MTT
Experimental: (§1) Cell viability (MTT) and CFSE Proliferation assay: Cells were plated in 96-well plates and let adhere overnight. After cell treatment, cell viability was measured by 3-(4,5-dimethylthiazol-2-yl)-2,5-diphenyl tetrazolium bromide (MTT) assay (CellTiter 96® Aqueous, Promega, Madison, Wis.).
(§2) Cell viability and detachment assays: After cells were treated with siRNA transfection, cell viability was measured by 3-(4,5-dimethylthiazol2-yl)-2,5-diphenyl tetrazolium bromide (MTT) assay (CellTiter 96® AQueous, Promega, Madison, Wis.). Briefly, 20 μl of the tetrazolium compound was added to each well. The cells were then incubated at 37° C. for 1 h. The plate was read at 490 nm with a plate reader to determine the viability. In detachment assays, detached and attached cells were harvested separately and counted in a hemocytometer. The percentage of detachment was calculated by dividing the number of detached cells by the total number of cells. Apoptosis assays: After treatment, attached and detached cells were collected, counted and prepared for terminal uridine deoxynucleotidyl transferase (TUNEL) assay by utilizing an APO-BRDU kit (BD Pharmingen, San Diego, Calif.) according to the manufacturer's instructions. Stained cells were analyzed with a fluorescence-activated cell sorting-Calibur flow cytometer (BD Biosciences). Calculation of the percentage of apoptotic cells in the sample was completed with CellQuest software (BD Biosciences). Apoptotic cells were also analyzed by Hoechst staining. Hoechst 33342 ([…]) was added to the fixed cells and the specimens were mounted on glass coverslips. The slides were viewed under the Zeiss microscope for apoptotic nuclei. The percent of apoptotic cells was calculated as the ratio of apoptotic cells to total number of cells.
In addition, the effect of INT2-31 on cell viability of esophageal, pancreatic and breast cancer cell lines was analyzed and the IC50 value for each cell line was determined, as shown in Table 1. […] Similar to melanoma results, INT2-31 inhibits viability more in cancer cells compared to normal cells. […]

C8161 melanoma cells [1] = test: Cell viability (MTT), C8161; type: cell-based, human; conditions: C8161, MTT
Experimental: as §1, §2
(§3) In addition, the effect of INT2-31 on cell viability of esophageal, pancreatic and breast cancer cell lines was analyzed and the IC50 value for each cell line was determined, as shown in Table 1. […] Similar to melanoma results, INT2-31 inhibits viability more in cancer cells compared to normal cells. Sensitivity of the cells to INT2-31 varied and directly correlated to the FAK and IGF-1R expression level of the cells.
To determine the effect on melanoma cell viability, three human melanoma cell lines were exposed to increasing doses of INT2-31 for 72 h and the results compared to human melanocytes. […] The effects of INT2-31 varied in the three cell lines and was possibly related to constitutive FAK and IGF-1R activation with the least sensitive cell line (SK-MEL-28) having the greatest expression of FAK and IGF-1R.

FAK-NT2 and IGF-1R = biological target: T1, FAK-NT2 and IGF-1R (Homo sapiens, UniProt Q05397); test: Immunofluorescent staining and confocal microscopy, colocalization; type: cell-based; conditions: cells transfected in the presence of the compound
T1 construct: FAK-NT2 (a.a. 127-243); expressed in transfected cells
T1 sequence (Q05397 127-243): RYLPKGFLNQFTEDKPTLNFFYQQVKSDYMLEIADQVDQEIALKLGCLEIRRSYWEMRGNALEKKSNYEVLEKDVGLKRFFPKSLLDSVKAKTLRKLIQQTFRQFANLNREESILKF
Experimental: Cells were fixed in 3.7% paraformaldehyde in 1×PBS for 10 min and permeabilized with 0.5% Triton X-100 for 5 minutes. Cells were then washed with 1×PBS, blocked with 25% normal goat serum in 1×PBS for 20 min and incubated with primary antibody (1:200 dilution in 25% goat serum) for 30 min at room temperature. After washing three times with 1×PBS, cells were incubated with a Texas Red-conjugated secondary antibody (1:400 dilution in 25% goat serum) for 30 min at room temperature and washed another three times with 1×PBS before observed under the microscope. For coimmunostaining experiments, cells were incubated with another primary antibody diluted 1:100 in 25% goat serum for 1 h. After washing three times with 1×PBS, a fluorescein isothiocyanate-conjugated secondary antibody (1:100 dilution) was applied to the coverslip. Cells immunostained with FAK and IGF-IR antibodies were evaluated for colocalization with a Leica confocal microscope and the MRC-1024 confocal laser scanning system. Cells treated with FAK-CD or FAK siRNA with or without test compound were stained with FAK antibody and evaluated for displacement of FAK from the focal adhesions with a Zeiss microscope. […] Colocalization is low for FAK-NT1, FAK-NT3 and FAK-CD.

[2] = system: KYSE70 esophageal cancer cells; test: Cell viability (MTT), KYSE70; type: cell-based; conditions: KYSE 70, 72 hours
Experimental: as §1, §2, §3

[3] = system: KYSE140 esophageal cancer cells; test: Cell viability (MTT), KYSE140; type: cell-based; conditions: KYSE 140, 72 hours
Experimental: as §1, §2, §3

C8161 melanoma cells [4] = test: Detachment assay, C8161 cells; type: cell-based, human; conditions: INT2-31 5 μM at 72 h; TAE 226 at 48 h and 72 h
Experimental: In detachment assays, detached and attached cells were harvested separately and counted in a hemocytometer. The percentage of detachment was calculated by dividing the number of detached cells by the total number of cells.
Detachment assay: Cells were plated with and without compound for 24, 48, and 72 h, and detached and attached cells were counted in a hemocytometer. The percent of detachment was calculated by dividing the number of detached cells by the total number of cells and experiments performed in triplicate. Apoptosis assays: After treatment, attached and detached cells were collected, counted and prepared for terminal uridine deoxynucleotidyl transferase (TUNEL) assay by utilizing an APO-BRDU kit (BD Pharmingen, San Diego, Calif.) and cells analyzed with a FACSCalibur cytometer (Becton Dickinson, San Jose, Calif.). In addition, apoptotic cells were analyzed with Hoechst 33342 staining (1 μg/ml). The percent of apoptotic cells was calculated as the ratio of apoptotic cells to total number of cells.

[5] = system: FAK +/+ and FAK −/− mouse embryonic fibroblast; test: MTT assay on FAK wildtype and null fibroblasts; type: cell-based; conditions: MTT, p<0.05
Experimental: as §1
(§4) Cell proliferation assay: Cell proliferation assay (Promega) using CellTiter 96 aqueous one solution was performed by adding a small amount of the One Solution Reagent directly to culture wells, incubating for 1-4 hours and then recording absorbance at 490 nm with a spectrophotometric plate reader. The quantity of formazan product as measured by the amount of 490 nm absorbance was directly proportional to the number of living cells in culture.
as §2

IGF-1R+/+ and −/− MEFs = test: MTT assay on IGF-1R wildtype and null fibroblasts; type: cell-based, mouse; conditions: MTT, p<0.05
Experimental: as §1, §4, §2

- percentage of interaction between FAK-NT2 and IGF-1R (FAK-NT2 and IGF-1R): around 30%
Compound: CC(=O)C1=C(O)C2(C)c3c(O)c(C)c(O)c(C(C)=O)c3OC2(Sc2ccccc2)CC1=O (centres unmarked) [NSC 250435, 1,1′-(1,7,9-Trihydroxy-8,9b-dimethyl-3-oxo-4-a-(phenylthio)-3,4,4a,9b-tetrahydrodibenzo-[b,d]furan-2,6-diyl)diethanone]
- cell viability (in words) (A375 melanoma cells): inhibited cell viability
- cell viability (in words) (C8161 melanoma cells [1]): inhibited cell viability

Compound: O=c1[nH]cc(F)c(=O)[nH]1 [5-FU, 5-Fluorouracil, reference compound]
- sensitivity of cells to single-agent treatment [2]: sensitive
- sensitivity of cells to single-agent treatment [3]: sensitive

Compound: CNC(=O)c1ccccc1Nc1nc(Nc2ccc(N3CCOCC3)cc2OC)ncc1Cl [TAE 226, reference compound]
- effect on detachment (in words) (C8161 melanoma cells [4]): Greater effects

Compound: Nc1ncnc2c1c(-c1cccc(OCc3ccccc3)c1)cn2C1CC(CN2CCC2)C1 (centres unmarked) [NVP AEW541, reference compound]
- effect on FAK wildtype compared to null fibroblasts [5]: increased effect
- effect on IGF-1R wildtype compared to null fibroblasts (IGF-1R+/+ and −/− MEFs): increased effect
